One compound from patent US7868135B2, “Compositions of lipopeptide antibiotic derivatives and methods of use thereof” (priority 2003, dated 2011) can be followed below.

Experiment [1] concerns S. pneumoniae (SPN 0032, ATCC 10813). Description: Intraperitoneal murine model of protection against infection (ED50, Table 21). Conditions: Streptococcus pneumoniae, ATCC10813, read-out: ED50 in Mice, S. pneumoniae (SPN0032). The experiment is classed as in vivo, Streptococcus pneumoniae. The source says:
(§1) A variety of in vivo models may be used to assess the antimicrobial properties of lipopeptide derivative compounds of this disclosure. For example, antimicrobial compounds of the instant disclosure may be tested for efficacy by measuring a compound's ability to protect a mouse against a microbial infection, such as an infection or disease caused by or related to Gram-positive bacteria, including Staphylococcus aureus, Streptococcus pneumoniae, and Enterococcus faecalis. […] A certain period after infection, mice are then individually treated, for example intravenously (i.v.), with a lipopeptide derivative of this disclosure.
(§2) Antimicrobial lipopeptide derivatives of the instant invention were tested for antimicrobial activity against Gram-positive bacteria in an intraperitoneal (i.p.) murine model (i.e., bacteria were injected i.p. and lipopeptide compounds were administered intravenously (i.v.)). Mice were infected with Staphylococcus aureus, Streptococcus pneumoniae, or Enterococcus faecalis, which were prepared as follows: S. aureus Smith (SAU0017, ATCC 19636) were grown in culture overnight on trypticase soy broth, harvested and then resuspended in fresh media containing 5% mucin (Sigma Chemical Co.); S. pneumoniae (SPN 0032, ATCC 10813) were grown overnight on blood agar plates and re-suspended in 0.9% sterile saline; and E. faecalis EFS0040 (clinical isolate) were grown overnight in culture on blood heart infusion broth, washed and resuspended in 0.9% saline and mixed with equal volume of sterile fecal rat extract. Swiss CD1 mice were each infected i.p. with bacteria at the following doses: S. aureus at 10^6 CFU/mouse; S. pneumoniae at 10^2 CFU/mouse; or E. faecalis at 10^7.5 CFU/mouse. […] The ED50 for each compound was calculated using the method of Reed and Meunch (Am. J. Hyg. 27: 493, 1938).

The test system of experiment [2] is Streptococcus pneumoniae (SPN032, ATCC 1081). Description: Intranasal murine lung infection model. The format is in vivo. Conditions: Streptococcus pneumoniae, ATCC1081, iv. As to the method: (§3) Other exemplary in vivo models of infection that may be used to assess, for example, the efficacy of an antimicrobial lipopeptide of the instant disclosure include the following: (A) a mouse (murine) model of lung infection (pneumonia) wherein the bacterial infection is administered intranasally (i.n.); (B) a murine thigh muscle model wherein the bacterial infection is administered intramuscularly (i.m.) in normal or neutropenic (immunocompromised) mice; and (C) a combination murine thigh muscle model (i.m. infection)/lung (i.n.) infection.
Antimicrobial lipopeptide derivatives of the instant invention were tested for antimicrobial activity against Gram-positive bacteria in an intranasal (i.n.) murine lung infection model (i.e., bacteria were innoculated i.n. and lipopeptide compounds were administered i.v.). Streptococcus pneumoniae (SPN032, ATCC 1081) were grown on 5% sheep blood agar plates for 24 h at 37° C., harvested and then resuspended in 0.9% saline. A group of eight Swiss CD1 mice were sedated with 2% isoflurane, and each was infected i.n. dropwise to the nares with 50 μl of the prepared bacterial inoculum (i.e., a dose of about 10^6 CFU/mouse). […] The ED50 (mg/kg) for each compound was calculated using the method of Reed and Meunch (Am. J. Hyg. 27: 493, 1938).

In experiment [3] the test system is E. faecalis EFS0040 (clinical isolate). Description: Intraperitoneal murine model of protection against infection (ED50, Table 21). The experiment is classed as in vivo, Enterococcus faecalis. Conditions: Enterococcus faecalis, read-out: ED50 in Mice, E. faecalis (EFS0040).
Text: as §1, §2

The test system of experiment [4] is Staphylococcus aureus (SAU0017). The experiment can be described thus: Thigh infection model in neutropenic mice. Conditions: Staphylococcus aureus, iv. The experiment is classed as in vivo. The method, then:
as §3

In experiment [5] the test system is S. aureus Smith (SAU0017, ATCC 19636). The experiment can be described thus: Intraperitoneal murine model of protection against infection (ED50, Table 21). The format is in vivo, Staphylococcus aureus. Conditions: Staphylococcus aureus, ATCC19636, read-out: ED50 in Mice, S. aureus (SAU0017).
Text: as §1, §2

In experiment [6] the test system is Staphylococcus aureus (SAU0017). Description: Kill curve (bactericidal activity). The experiment is classed as cell-based. Conditions: FIG. 5A. The method, then:
(§4) Another measure of the antimicrobial properties of the lipopeptide derivative compounds of this disclosure includes kill curve measurements. Kill curve experiments generally involve exposure of microorganisms to varying concentrations (e.g., multiples of a compound's MIC) of a test compound. The microorganisms may be in culture at log phase of growth or may be in a particular host tissue (e.g., lung) for up to 24 hours before exposure to a test compound. At selected time points, a sample of each culture or tissue can be analyzed for a titre of viable microorganisms, which is generally gauged against the time required for a compound to inhibit growth or kill bacteria.
(§5) Kill curve experiments were performed with both Staphylococcus aureus (SAU0017) and Enterococcus faecalis (EFS0004) organisms grown to log phase, which were suspended in cation-adjusted Mueller-Hinton broth with additional 0.625 mM Ca^+2 to a concentration of 10^6 CFU/mL. The cultures were then exposed to varying concentrations (i.e., multiples of the MIC) of a lipopeptide derivative and incubated at about 37° C. At selected time points from about 0 hours to about 24 hours, a sample of each culture was analyzed for a titre of viable organisms (CFU/ml), which was compared against the time required for each compound to kill bacteria.

In experiment [7] the test system is Enterococcus faecalis (EFS0004). Description: Kill curve (bactericidal activity). The experiment is classed as cell-based. Conditions: FIG. 4A. As to the method: as §4, §5

By ED50 is commonly meant the dose at which the effect has come halfway, by size or by number of responders. In the case of `CN[C@H](CC(C)C)C(=O)N[C@H]1C(=O)N[C@@H](CC(N)=O)C(=O)N[C@H]2C(=O)N[C@H]3C(=O)N[C@H](C(=O)N[C@H](C(=O)O)c4cc(O)cc(O)c4-c4cc3ccc4O)[C@H](O)c3ccc(c(Cl)c3)Oc3cc2cc(c3O[C@@H]2O[C@H](CO)[C@@H](O)[C@H](O)[C@H]2O[C@H]2C[C@](C)(N)[C@H](O)[C@H](C)O2)Oc2ccc(cc2Cl)[C@H]1O` [Vancomycin, reference compound], the ED50 in experiment [1] was 1.75 mg/kg; in experiment [2], 3 to 4.3 mg/kg; in experiment [3], 2 mg/kg; in experiment [4], 0.9 to 1.6 mg/kg; in experiment [5], 0.9 to 2.4 mg/kg. The “bactericidal or bacteriostatic in kill curve” value in experiment [6] and in experiment [7] was “bacteriostatic” each time.
